Data published in US11149054B2, “Oxysterols and methods of use thereof” (Sage Therapeutics, Inc., priority 2016, dated 2021).
Read-outs that look alike come from different tables or passages of the source.

What was measured:
[1] = biological target: GluN2B glutamate receptors (Homo sapiens (Human), UniProt Q05586+Q13224); test: Whole-cell patch clamp of mammalian cells (Ionworks Barracuda), positive allosteric modulation, GluN2B; type: cell-based; details: for Emax: read-out: Avg Emax 2B (%)
Method: (§1) The measurements were performed using Ion Works Barracuda platform following this procedure:
(§2) Electrophysiological Procedures:
(§3) • a) Intracellular solution (mM): 50 mM CsCl, 90 mM CsF, 2 mM MgCl2, 5 mM EGTA, 10 mM HEPES. Adjust to pH 7.2 with CsOH. • b) Extracellular solution, HB-PS (composition in mM): NaCl, 137; KCl, 1.0; CaCl2), 5; HEPES, 10; Glucose, 10; pH adjusted to 7.4 with NaOH (refrigerated until use). • c) Holding potential: −70 mV, potential during agonist/PAM application: −40 mV. Recording Procedure: • a) Extracellular buffer will be loaded into the PPC plate wells (11 μL per well). Cell suspension will be pipetted into the wells (9 μL per well) of the PPC planar electrode. • b) Whole-cell recording configuration will be established via patch perforation with membrane currents recorded by on-board patch clamp amplifiers. • c) Two recordings (scans) will be performed. First, during pre-application of test article alone (duration of pre-application—[…]) and second, during test articles and agonist (EC20 L-glutamate and 30 μM glycine) co-application to detect positive modulatory effects of the test article. […] Potentiating Effect of Positive Allosteric Modulators (PAM) on the Channel
(§4) PAM concentration-response data will be fitted to an equation of the form: % Activation=% L-glutamate EC20+{(% MAX−% L-glutamate EC20)/[1+([Test]/EC50)^N]}, where [Test] will be the concentration of PAM (test article), EC50 will be the concentration of PAM producing half-maximal activation, N will be the Hill coefficient, % L-glutamate EC20 will be the percentage of the current Elicited with L-glutamate EC20, % MAX is the percentage of the current activated with the highest dose of PAM co-admitted with L-glutamate EC20 and % Activation will be the percentage of the current elicited with L-glutamate EC10-30 at each PAM concentration. The maximal amplitude of the evoked currents are measured and defined as Peak Current Amplitude (PCA).

[2] = biological target: GlunN1/GluN2A glutamate receptors (Homo sapiens (Human), UniProt Q05586+Q12879); test: Whole-cell patch clamp of mammalian cells (Ionworks Barracuda), positive allosteric modulation, GluN1/GluN2A; type: cell-based
Chain of GlunN1/GluN2A glutamate receptors (Q12879 23-1464, other chains not shown): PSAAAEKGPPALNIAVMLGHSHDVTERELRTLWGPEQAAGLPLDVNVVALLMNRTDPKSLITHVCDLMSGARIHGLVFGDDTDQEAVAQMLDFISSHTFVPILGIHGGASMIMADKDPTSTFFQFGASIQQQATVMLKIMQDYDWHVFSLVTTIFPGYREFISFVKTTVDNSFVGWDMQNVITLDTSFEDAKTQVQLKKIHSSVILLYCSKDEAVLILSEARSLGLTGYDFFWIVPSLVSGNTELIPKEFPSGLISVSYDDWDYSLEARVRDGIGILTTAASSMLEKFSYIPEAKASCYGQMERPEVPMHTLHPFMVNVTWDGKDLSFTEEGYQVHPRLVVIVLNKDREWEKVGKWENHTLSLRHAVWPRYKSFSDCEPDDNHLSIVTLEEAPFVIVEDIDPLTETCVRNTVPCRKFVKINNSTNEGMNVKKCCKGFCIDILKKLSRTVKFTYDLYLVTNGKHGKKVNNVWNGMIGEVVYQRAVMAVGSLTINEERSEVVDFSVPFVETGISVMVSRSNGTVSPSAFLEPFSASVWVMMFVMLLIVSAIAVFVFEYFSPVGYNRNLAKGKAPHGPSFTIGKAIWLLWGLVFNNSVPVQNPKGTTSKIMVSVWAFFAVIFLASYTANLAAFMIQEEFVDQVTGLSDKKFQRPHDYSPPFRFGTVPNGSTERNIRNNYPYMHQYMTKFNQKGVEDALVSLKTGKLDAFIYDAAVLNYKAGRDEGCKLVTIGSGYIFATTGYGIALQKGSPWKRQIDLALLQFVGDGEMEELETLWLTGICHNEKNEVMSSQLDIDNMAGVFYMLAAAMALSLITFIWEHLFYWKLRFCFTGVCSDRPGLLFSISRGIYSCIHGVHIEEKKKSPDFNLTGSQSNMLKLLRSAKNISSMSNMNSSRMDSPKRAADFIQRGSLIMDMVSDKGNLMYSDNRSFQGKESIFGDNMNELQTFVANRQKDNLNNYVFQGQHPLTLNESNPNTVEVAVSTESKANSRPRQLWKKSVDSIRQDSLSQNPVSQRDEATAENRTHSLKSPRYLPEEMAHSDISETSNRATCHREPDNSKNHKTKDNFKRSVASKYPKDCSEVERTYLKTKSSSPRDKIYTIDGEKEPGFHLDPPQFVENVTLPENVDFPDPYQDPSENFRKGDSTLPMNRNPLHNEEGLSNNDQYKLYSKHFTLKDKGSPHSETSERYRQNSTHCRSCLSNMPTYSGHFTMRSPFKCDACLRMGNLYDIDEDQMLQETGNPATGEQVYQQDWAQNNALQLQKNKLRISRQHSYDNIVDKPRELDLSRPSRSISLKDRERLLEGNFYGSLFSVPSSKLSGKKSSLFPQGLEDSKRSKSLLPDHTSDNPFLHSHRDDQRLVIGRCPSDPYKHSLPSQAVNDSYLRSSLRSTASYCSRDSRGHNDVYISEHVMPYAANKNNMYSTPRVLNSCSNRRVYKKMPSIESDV
Method: as §1, §2, §3, §4

[3] = % potentiation of current elicited with EC20 L-glutamate and 30 μM glycine
[4] = HEK293 cells, % potentiation of current elicited with EC20 L-glutamate and 30 μM glycine, read-out: Avg Emax 2A (%)
[5] = co-application with EC20 L-glutamate and 30 μM glycine, 8-point concentration-response, read-out: Avg EC50 2B
[6] = HEK293 cells, co-application with EC20 L-glutamate and 30 μM glycine, 8-point concentration-response, read-out: Avg EC50 2A
[7] = HEK293, read-out: Avg Emax 2A (%)

Chain of GluN2B glutamate receptors (Q13224 27-1484, other chains not shown): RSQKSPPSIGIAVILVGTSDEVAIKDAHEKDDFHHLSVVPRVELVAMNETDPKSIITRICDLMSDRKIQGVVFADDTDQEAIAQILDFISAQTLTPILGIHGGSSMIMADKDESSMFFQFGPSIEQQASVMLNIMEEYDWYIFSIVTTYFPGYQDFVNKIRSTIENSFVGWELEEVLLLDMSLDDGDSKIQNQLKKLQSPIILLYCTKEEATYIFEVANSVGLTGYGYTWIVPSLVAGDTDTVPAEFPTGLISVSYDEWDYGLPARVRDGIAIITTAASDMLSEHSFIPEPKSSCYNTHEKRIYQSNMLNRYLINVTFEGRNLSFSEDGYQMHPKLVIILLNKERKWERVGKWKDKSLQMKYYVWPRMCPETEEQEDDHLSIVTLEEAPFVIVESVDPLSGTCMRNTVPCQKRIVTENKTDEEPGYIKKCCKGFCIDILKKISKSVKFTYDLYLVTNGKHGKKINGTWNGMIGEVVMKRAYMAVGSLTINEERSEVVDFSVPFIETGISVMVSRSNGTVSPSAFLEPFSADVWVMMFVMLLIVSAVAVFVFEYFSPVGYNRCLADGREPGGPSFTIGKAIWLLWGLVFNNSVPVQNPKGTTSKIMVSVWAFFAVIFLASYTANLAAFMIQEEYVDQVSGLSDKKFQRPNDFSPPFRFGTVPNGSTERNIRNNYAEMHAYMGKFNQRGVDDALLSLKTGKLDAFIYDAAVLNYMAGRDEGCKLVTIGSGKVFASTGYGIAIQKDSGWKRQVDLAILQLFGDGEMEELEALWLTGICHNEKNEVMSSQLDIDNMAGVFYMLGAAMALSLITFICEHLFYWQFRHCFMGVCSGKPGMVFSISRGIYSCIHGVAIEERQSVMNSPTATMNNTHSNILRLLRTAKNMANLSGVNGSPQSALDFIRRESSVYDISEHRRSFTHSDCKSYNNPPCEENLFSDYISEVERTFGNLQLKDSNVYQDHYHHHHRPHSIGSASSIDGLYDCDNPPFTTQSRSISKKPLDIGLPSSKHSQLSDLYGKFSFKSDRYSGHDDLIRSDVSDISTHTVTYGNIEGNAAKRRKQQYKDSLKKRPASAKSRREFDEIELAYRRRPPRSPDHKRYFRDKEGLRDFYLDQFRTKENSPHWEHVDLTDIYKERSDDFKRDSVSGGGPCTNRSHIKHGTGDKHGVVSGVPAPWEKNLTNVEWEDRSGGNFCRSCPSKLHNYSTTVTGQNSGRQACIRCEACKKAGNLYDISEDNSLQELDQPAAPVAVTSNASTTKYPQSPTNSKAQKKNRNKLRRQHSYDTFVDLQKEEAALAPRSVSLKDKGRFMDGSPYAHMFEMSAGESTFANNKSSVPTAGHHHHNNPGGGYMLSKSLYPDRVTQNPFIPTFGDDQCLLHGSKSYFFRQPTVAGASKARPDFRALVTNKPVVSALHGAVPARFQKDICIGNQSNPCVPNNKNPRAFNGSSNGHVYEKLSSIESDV

`C[C@H](CCC1(O)CCC(C)(C)CC1)[C@H]1CC[C@H]2[C@@H]3CC=C4C[C@](O)(C(F)(F)F)CC[C@]4(C)[C@H]3CC[C@]12C` [Compound 4799] was tested, and the EC50 [1] was 760 nM, the Emax [1, 3] was 32.8% and the EC50 [2] was > 10000 nM. It also gave an Emax [2, 4] of 36.1%.
`C[C@H](CCC(O)c1cccnc1)[C@H]1CC[C@H]2[C@@H]3CC=C4C[C@@](C)(O)CC[C@]4(C)[C@H]3CC[C@]12C` (stereo partly shown) [Compound 255] gave an Emax [1, 3] of 132%, an EC50 [1, 5] of 153 nM and an Emax [2, 4] of 159%. For the same compound, the EC50 [2, 6] was 646 nM.
Work on `CC[C@]1(O)CC[C@@]2(C)C(=CC[C@H]3[C@@H]4CC[C@H]([C@H](C)CCC(O)Cc5ccccc5)[C@@]4(C)CC[C@@H]32)C1` (stereo partly shown) [Compound 6010] yielded an EC50 [1] of 1570 nM, an Emax [1, 3] of 184% and an EC50 [2] of 1100 nM. It also gave an Emax [2, 4] of 239%.
With `CC[C@]1(O)CC[C@H]2C(=CC[C@@H]3[C@@H]2CC[C@]2(C)[C@@H]([C@H](C)CCC4(O)CCOC4)CC[C@@H]32)C1` (stereo partly shown) [Compound 8689] the EC50 [1] was 175 nM and the EC50 [2] was 169 nM.
Work on `C[C@H](CC[C@H](O)C(C)(C)C)[C@H]1CC[C@H]2[C@@H]3CC[C@H]4C[C@](O)(C(F)(F)F)CC[C@]4(C)[C@H]3CC[C@]12C` [Compound 2184] yielded an EC50 [1] of 80 nM and an EC50 [2] of 65.8 nM.
Compound `CC(C)C(O)CC[C@@H](C)[C@H]1CC[C@H]2[C@@H]3CC[C@H]4C[C@@](C)(O)CC[C@@H]4[C@H]3CC[C@]12C` (stereo partly shown) [Compound 175] has an EC50 [1] of 288 nM, an Emax [1, 3] of 279% and an EC50 [2] of 574 nM. The Emax [2, 4] was 367%.
`CC[C@]1(O)CC[C@H]2C(=CC[C@@H]3[C@@H]2CC[C@]2(C)[C@@H]([C@H](C)CCC4(O)CCC(C)(C)CC4)CC[C@@H]32)C1` [Compound 8946] was tested, and the EC50 [1] was 1350 nM, the Emax [1, 3] was 231% and the EC50 [2] was 1600 nM. The Emax [2, 4] was 263%.
With `CC[C@]1(O)CC[C@@]2(C)C(=CC[C@H]3[C@@H]4CC[C@H]([C@H](C)CC[C@H](O)Cc5ccccc5)[C@@]4(C)CC[C@@H]32)C1` [Compound 6051] the EC50 [1] was 1260 nM, the Emax [1, 3] was 292% and the EC50 [2] was 500 nM. The Emax [2, 4] was 293%.
For `CC[C@@H](O)CCC[C@@H](C)[C@H]1CC[C@H]2[C@@H]3CC=C4C[C@](O)(CC)CC[C@@H]4[C@H]3CC[C@]12C` [Compound 10841], the EC50 [1] was > 10000 nM, the Emax [1] was 30.1% and the EC50 [2] was > 10000 nM. The Emax [2, 7] was 15.6%.
`CC[C@]1(O)CC[C@@]2(C)C(=CC[C@H]3[C@@H]4CC[C@H]([C@H](C)CC[C@@H](O)c5ccc(F)cc5)[C@@]4(C)CC[C@@H]32)C1` [Compound 7147] gave an EC50 [1] of 91.7 nM, an Emax [1] of 242% and an Emax [2, 7] of 200%.
`CC[C@]1(O)CC[C@H]2C(=CC[C@@H]3[C@@H]2CC[C@]2(C)[C@@H]([C@H](C)CC[C@@]4(O)CCOC4)CC[C@@H]32)C1` (single isomer, unassigned) [Compound 8602] was tested, and the EC50 [1] was 434 nM and the EC50 [2] was 1050 nM.
For `CC[C@]1(O)CC[C@H]2C(=CC[C@@H]3[C@@H]2CC[C@]2(C)[C@@H]([C@H](C)CCC[C@](C)(O)C(F)(F)F)CC[C@@H]32)C1` [Compound 10557], the Emax [1, 3] was 202%, the EC50 [1, 5] was 192 nM and the Emax [2, 4] was 190%. It also gave an EC50 [2, 6] of 287 nM.
In the case of `C[C@H](O)CCC[C@@H](C)[C@H]1CC[C@H]2[C@@H]3CC[C@H]4C[C@](O)(C(F)(F)F)CC[C@]4(C)[C@H]3CC[C@]12C` [Compound 2113], the Emax [1, 3] is reported as 285% and the Emax [2, 4] is reported as 403%.
Work on `C[C@H](CC[C@H](O)C(C)(C)C)[C@H]1CC[C@H]2[C@@H]3CC=C4C[C@](O)(C(F)(F)F)CC[C@]4(C)[C@H]3CC[C@]12C` [Compound 3507] yielded an EC50 [1] of 191 nM and an EC50 [2] of 165 nM.
Compound `C[C@H](CC[C@@H](O)C1CCC1)[C@H]1CC[C@H]2[C@@H]3CC[C@H]4C[C@](O)(C(F)(F)F)CC[C@]4(C)[C@H]3CC[C@]12C` [7−B] has an EC50 [1] of 306 nM, an Emax [1, 3] of 352% and an EC50 [2] of 347 nM. For the same compound, the Emax [2, 4] was 356%.
In the case of `C[C@H](CCCC(C)(C)O)[C@H]1CC[C@H]2[C@@H]3CC[C@H]4C[C@](O)(C(F)(F)F)CC[C@]4(C)[C@H]3CC[C@]12C` [Compound 5116], the Emax [1, 3] is reported as 214%, the EC50 [1, 5] is reported as 130 nM and the Emax [2, 4] is reported as 185%. It also gave an EC50 [2, 6] of 102 nM.
`CC[C@]1(O)CC[C@H]2[C@@H](CC[C@@H]3[C@@H]2CC[C@]2(C)[C@@H]([C@H](C)CCCC(C)(C)O)CC[C@@H]32)C1` [Compound 9670] showed an EC50 [1] of 220 nM, an Emax [1, 3] of 213% and an EC50 [2] of 366 nM. For the same compound, the Emax [2, 4] was 154%.
With `CC[C@H](O)CC[C@@H](C)[C@H]1CC[C@H]2[C@@H]3CC=C4C[C@](O)(CC)CC[C@@H]4[C@H]3CC[C@]12C` [Compound 8585] the EC50 [1] was 237 nM, the Emax [1, 3] was 233% and the EC50 [2] was 286 nM. It also gave an Emax [2, 4] of 194%.
`CC[C@]1(O)CC[C@@]2(C)[C@@H](CC[C@@H]3[C@@H]2CC[C@]2(C)[C@@H]([C@H](C)CC[C@H](O)c4ccccn4)CC[C@@H]32)C1` [Compound 7032] showed an EC50 [1] of 874 nM, an Emax [1, 3] of 63.8% and an Emax [2, 4] of 28.3%.
Work on `CC[C@]1(O)CC[C@@]2(C)C(=CC[C@H]3[C@@H]4CC[C@H]([C@H](C)CC[C@@H](O)c5ccccc5F)[C@@]4(C)CC[C@@H]32)C1` [Compound 7282] yielded an EC50 [1] of 174 nM and an EC50 [2] of 95.9 nM.
For `C[C@H](CC[C@@H](O)C1CCCCC1)[C@H]1CC[C@H]2[C@@H]3CC[C@H]4C[C@](O)(C(F)(F)F)CC[C@]4(C)[C@H]3CC[C@]12C` [Compound 4156], the EC50 [1] was > 10000 nM, the Emax [1, 3] was 20.1% and the EC50 [2] was > 10000 nM. It also gave an Emax [2, 4] of 10.6%.
For `C[C@H](CCC1(O)CCC(C(C)(C)C)CC1)[C@H]1CC[C@H]2[C@@H]3CC[C@H]4C[C@](O)(C(F)(F)F)CC[C@]4(C)[C@H]3CC[C@]12C` (stereo partly shown) [Compound 4360], the Emax [1, 3] was 14.6% and the Emax [2, 4] was 38.1%.
With `CC(C)[C@@H](O)CC[C@@H](C)[C@H]1CC[C@H]2[C@@H]3CC[C@H]4C[C@@](C)(O)CC[C@@H]4[C@H]3CC[C@]12C` [Compound 1A75] the Emax [1, 3] was 308% and the Emax [2, 4] was 457%.
In the case of `CC[C@]1(O)CC[C@@]2(C)C(=CC[C@H]3[C@@H]4CC[C@H]([C@H](C)CC[C@@H](O)c5ccc(C#N)cc5)[C@@]4(C)CC[C@@H]32)C1` (single isomer, unassigned) [Compound 6680], the EC50 [1] is reported as 464 nM, the Emax [1, 3] is reported as 123% and the EC50 [2] is reported as 1370 nM. For the same compound, the Emax [2, 4] was 175%.
`CC[C@]1(O)CC[C@H]2C(=CC[C@@H]3[C@@H]2CC[C@]2(C)[C@@H]([C@H](C)CCC[C@H](O)C(F)(F)F)CC[C@@H]32)C1` [Compound 9567] showed an Emax [1, 3] of 124%, an EC50 [1, 5] of 378 nM and an Emax [2, 4] of 104%. It also gave an EC50 [2, 6] of 328 nM.
With `CC[C@]1(O)CC[C@H]2C(=CC[C@@H]3[C@@H]2CC[C@]2(C)[C@@H]([C@H](C)CCCC(O)C(C)(C)C)CC[C@@H]32)C1` (stereo partly shown) [Compound 10012] the Emax [1, 3] was 168%, the EC50 [1, 5] was 910 nM and the Emax [2, 4] was 154%. It also gave an EC50 [2, 6] of 790 nM.
Compound `CC[C@]1(O)CC[C@H]2C(=CC[C@@H]3[C@@H]2CC[C@]2(C)[C@@H]([C@H](C)CC[C@H](O)C(C)C)CC[C@@H]32)C1` [Compound 8462] has an EC50 [1] of 96.2 nM and an EC50 [2] of 170 nM.
In the case of `C[C@H](CCC(O)Cc1ccccc1)[C@H]1CC[C@H]2[C@@H]3CC=C4C[C@@](C)(O)CC[C@]4(C)[C@H]3CC[C@]12C` (stereo partly shown) [Compound 660], the Emax [1, 3] is reported as 281% and the Emax [2, 4] is reported as 195%.
Compound `CC[C@]1(O)CC[C@H]2[C@@H](CC[C@@H]3[C@@H]2CC[C@]2(C)[C@@H]([C@H](C)CCCC4(O)CCC(F)(F)CC4)CC[C@@H]32)C1` [Compound 9813] has an Emax [1, 3] of 99.9%, an EC50 [1, 5] of 268 nM and an Emax [2, 4] of 68.7%. The EC50 [2, 6] was 469 nM.
In the case of `CC[C@]1(O)CC[C@@]2(C)[C@@H](CC[C@@H]3[C@@H]2CC[C@]2(C)[C@@H]([C@H](C)CC[C@H](O)c4cccnc4)CC[C@@H]32)C1` [Compound 6754], the Emax [1, 3] is reported as 38.8%, the EC50 [1, 5] is reported as > 10000 nM and the Emax [2, 4] is reported as 22.3%. For the same compound, the EC50 [2, 6] was > 10000 nM.
Work on `C[C@H](CCC[C@H](O)C(C)(C)C)[C@H]1CC[C@H]2[C@@H]3CC[C@H]4C[C@](O)(C(F)(F)F)CC[C@]4(C)[C@H]3CC[C@]12C` [Compound 12156] yielded an Emax [1, 3] of 111% and an Emax [2, 4] of 43.2%.
